Laboratory results as given in patent publication US7276501B2, “6-(4-substituted-anilino)pyrimidine derivatives, method for preparation thereof and antiviral pharmaceutical composition comprising the same” (B & C Biopharm, priority 2002, dated 2007).

Target: T1, HCV RNA polymerase (RNA dependent RNA polymerase, NS5B) (Hepatitis C virus genotype 1b, UniProt P26663)
T1 construct: the NS5B region (1773 bps) was amplified by PCR and cloned into pVLHIS, a baculovirus transfer vector; (His)6; made in house; host or cells: Sf9 insect cells (recombinant baculovirus, pVLHIS-NS5B)
Assay: Inhibitory effect on activity of recombinant HCV RNA polymerase (NS5B) in vitro
Format: biochemical, HCV-1b type HCV
Experimental: Test of Inhibitory Effect on Activity of HCV RNA Polymerase (RNA Dependent RNA Polymerase, NS5B) in vitro
The following in vitro experiments were conducted to examine the inhibitory effect of the compounds according to the present invention on the activity of HCV RNA dependent RNA Polymerase.
HCV cDNA was obtained from the blood of HCV-1b type HCV patient and the NS5B region (1773 bps) was amplified by PCR and cloned into pVLHIS, a baculovirus transfer vector, to prepare a recombinant transfer vector. The prepared transfer vector and the wild-type AcNPV vector were cotransfected into Sf9 insect cell line to yield a recombinant baculovirus containing the histidine-tagged recombinant vector pVLHIS-NS5B. Sufficiently cultured insect cells were infected with the resulting recombinant baculovirus and cultured in Grace's medium containing 10% FBS for 3 to 4 days. The culture broth was centriftiged to obtain only the infected cells. The cells were washed three times with PBS and resuspended in binding buffer [50 mM Na-phosphate (pH 8.0), 30 mM NaCl, 10 mM imidazole, 1 mM DTT, 10% glycerol, 1% NP40], sonicated and the clearized lysate was obtained. Recombinant NS5B was purified by affinity column chromatography using a Ni-NTA His bind resin (Novagen) to produce pure NS5B protein. The (His)6-tagged NS5B was bound to Ni-NTA resin and washed the binding buffer containing 50 mM imidazole. The bound NS5B was eluted with the binding buffer containing imidazole in a step-gradient manner (100-300 mM). The NS5B protein fractions were dialyzed against buffer [50 mM Tris-HCl, 50 mM NaCl, 1 mM DTT, […], 10% glycerol], followed by at −70° C. in a small aliquot.
The 3′UTR cDNA (220 bp) of HCV was obtained from 1b HCV RNA of the blood of a hepatitis C patient by PCR and cloned into pcDNA3 vector. Linearized DNA fragment containing the 3′-UTR was prepared using the restriction enzyme Eco RI and used as a template for in vitro transcription using T7 RNA ploymerase to prepare RNA fragment containing 3′-UTR.
In vitro inhibitory activity of the compounds of the present invention on recombinant HCV RNA polymerase was measured as follows.
A streptavidin-coated well plate was prepared suitable for the sample to be examined. 25 μl of 2× assay buffer [50 mM Tris-Cl (pH 7.5), 100 mM NaCl, 10 mM MgCl2, 20 mM KCl, 1 mM EDTA, 1 mM DTT] and 10 μl of purified HCV RNA polymerase 200 ng and 3′-UTR template RNA were added to each well. Then, 5 μl of the sample to be examined was added to have final concentrations of 10, 1, 0.1 and 0.01 μg/mL. Finally, 10 μl of a reactant solution containing DIG-(digoxigenin)-UTP, biotin-UTP, ATP, CTP, GTP, and UTP as a nucleotide for the ploymerase reaction with the RNA template of HCV 3′-UTR RNA was added to each well. The reaction mixture was incubated at 22° C. for 60 minutes. By the action of HCV polymerase, newly generated RNAs including UTP conjugated with biotin and DIG were copied and these new RNAs could bind to streptavidin coated on the well by biotin-conjugated UTP. After completion of the reaction, the plate was washed three times with 200 μl of a washing buffer (pH 7.0, Roche Co.) to remove unreacted substances and impurities. Then, 100 μl of the secondary antibody anti-DIG-POD (peroxidase, Roche Co.) was added to each well and incubated at 37° C. for 1 hour. Again, the well plate was washed with the washing buffer. Finally, 100 μl of ABTS^R (Roche Co.) as a POD substrate was added to each well and reacted for 15 to 30 minutes. The optical density (OD) was measured using an ELISA reader (Bio-Tek instrument Co.) at 405 nm. The inhibitory effect on the activity of HCV polymerase was calculated by subtracting the OD of the positive control without the sample.

T1 sequence (P26663 2420-3010): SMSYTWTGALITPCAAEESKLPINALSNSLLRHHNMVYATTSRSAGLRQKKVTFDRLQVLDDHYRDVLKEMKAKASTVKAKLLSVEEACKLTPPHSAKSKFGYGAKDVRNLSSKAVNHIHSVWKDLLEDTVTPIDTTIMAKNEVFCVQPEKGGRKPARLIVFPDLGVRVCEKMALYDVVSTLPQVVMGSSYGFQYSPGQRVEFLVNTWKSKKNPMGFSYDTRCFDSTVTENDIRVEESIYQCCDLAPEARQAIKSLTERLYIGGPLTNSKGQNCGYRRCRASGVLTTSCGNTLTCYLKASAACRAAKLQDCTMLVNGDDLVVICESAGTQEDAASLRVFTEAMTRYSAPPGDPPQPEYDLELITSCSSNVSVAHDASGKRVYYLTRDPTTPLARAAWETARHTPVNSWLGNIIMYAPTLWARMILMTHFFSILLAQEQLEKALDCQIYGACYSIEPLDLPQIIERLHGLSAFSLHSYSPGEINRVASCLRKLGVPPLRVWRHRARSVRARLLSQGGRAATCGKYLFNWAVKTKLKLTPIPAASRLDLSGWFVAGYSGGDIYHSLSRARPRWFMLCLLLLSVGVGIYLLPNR

## CSc1nc(Nc2ccc(N3CCOCC3)cc2)cc(N2CCN(C(=O)c3ccncc3)CC2)n1 [Example 3, 2-methylthio-6-[4-(4-morpholino)anilino]-4-[4-[(4-pyridyl)carbonyl]piperazin-1-yl]pyrimidine]
0.01 μg/mL
  Inhibition of activity of HCV RNA polymerase (%): 23%
0.1 μg/mL
  Inhibition of activity of HCV RNA polymerase (%): 53%
1 μg/mL
  Inhibition of activity of HCV RNA polymerase (%): 73%
10 μg/mL
  Inhibition of activity of HCV RNA polymerase (%): 93%

## CSc1nc(Nc2ccc(N3CCOCC3)cc2)cc(N2CCN(C(=O)OC(C)C)CC2)n1 [Example 1, 2-methylthio-6-[4-(4-morpholino)anilino]-4-[4-(isopropoxycarbonyl)piperazin-1-yl]pyrimidine]
0.01 μg/mL
  Inhibition of activity of HCV RNA polymerase (%): 29%
0.1 μg/mL
  Inhibition of activity of HCV RNA polymerase (%): 55%
1 μg/mL
  Inhibition of activity of HCV RNA polymerase (%): 81%
10 μg/mL
  Inhibition of activity of HCV RNA polymerase (%): 99%

## CSc1nc(Nc2ccc(N3CCOCC3)cc2)cc(N2CCN(CC(=O)O)CC2)n1 [Example 4, 2-methylthio-6-[4-(4-morpholino)anilino]-4-[4-(carboxymethyl)piperazin-1-yl]pyrimidine]
0.01 μg/mL
  Inhibition of activity of HCV RNA polymerase (%): 27%
0.1 μg/mL
  Inhibition of activity of HCV RNA polymerase (%): 52%
1 μg/mL
  Inhibition of activity of HCV RNA polymerase (%): 65%
10 μg/mL
  Inhibition of activity of HCV RNA polymerase (%): 94%

## CSc1nc(Nc2ccc(N3CCOCC3)cc2)cc(N2CCN(C(=O)c3cccnc3)CC2)n1 [Example 2, 2-methylthio-6-[4-(4-morpholino)anilino]-4-[4-[(3-pyridyl)carbonyl]piperazin-1-yl]pyrimidine]
0.01 μg/mL
  Inhibition of activity of HCV RNA polymerase (%): 15%
0.1 μg/mL
  Inhibition of activity of HCV RNA polymerase (%): 30%
1 μg/mL
  Inhibition of activity of HCV RNA polymerase (%): 62%
10 μg/mL
  Inhibition of activity of HCV RNA polymerase (%): 98%
